Columns and labels:
Tyk2 = Tyk2 (Homo sapiens (Human), UniProt P29597); assay: Tyk2 enzyme assay (Assay Example^b 1)
JAK3 = JAK3 (Homo sapiens (Human), UniProt P52333); assay: JAK3 enzyme assay (Assay Example^b 1)
JAK1 = JAK1 (Homo sapiens (Human), UniProt P23458); assay: JAK1 enzyme assay (Assay Example^b 1)
JAK2 = JAK2 (Homo sapiens (Human), UniProt O60674); assay: JAK2 enzyme assay (Assay Example^b 1)
[1] = clinical tests; cited from earlier work
[2] = clinical tests; cited from earlier work; remark: listed apart in the source
[3] = monkey model of kidney transplantation; cited from earlier work
[4] = murine asthma model; cited from earlier work
[5] = IC50 (μM) TYK2, Table^b 79, ATP 100 μM
[6] = IC50 (μM) JAK3, Table^b 78, ATP 100 μM
[7] = IC50 (μM) JAK1, Table^b 78, ATP 100 μM
[8] = IC50 (μM) JAK2, Table^b 79, ATP 100 μM
[9] = IC50 (μM) TYK2, Table^b 80, ATP 100 μM
[10] = IC50 (μM) JAK3, Table^b 80, ATP 100 μM
[11] = IC50 (μM) JAK1, Table^b 80, ATP 100 μM
[12] = IC50 (μM) JAK2, Table^b 80, ATP 100 μM

Sequence of JAK3 (P52333 whole entry): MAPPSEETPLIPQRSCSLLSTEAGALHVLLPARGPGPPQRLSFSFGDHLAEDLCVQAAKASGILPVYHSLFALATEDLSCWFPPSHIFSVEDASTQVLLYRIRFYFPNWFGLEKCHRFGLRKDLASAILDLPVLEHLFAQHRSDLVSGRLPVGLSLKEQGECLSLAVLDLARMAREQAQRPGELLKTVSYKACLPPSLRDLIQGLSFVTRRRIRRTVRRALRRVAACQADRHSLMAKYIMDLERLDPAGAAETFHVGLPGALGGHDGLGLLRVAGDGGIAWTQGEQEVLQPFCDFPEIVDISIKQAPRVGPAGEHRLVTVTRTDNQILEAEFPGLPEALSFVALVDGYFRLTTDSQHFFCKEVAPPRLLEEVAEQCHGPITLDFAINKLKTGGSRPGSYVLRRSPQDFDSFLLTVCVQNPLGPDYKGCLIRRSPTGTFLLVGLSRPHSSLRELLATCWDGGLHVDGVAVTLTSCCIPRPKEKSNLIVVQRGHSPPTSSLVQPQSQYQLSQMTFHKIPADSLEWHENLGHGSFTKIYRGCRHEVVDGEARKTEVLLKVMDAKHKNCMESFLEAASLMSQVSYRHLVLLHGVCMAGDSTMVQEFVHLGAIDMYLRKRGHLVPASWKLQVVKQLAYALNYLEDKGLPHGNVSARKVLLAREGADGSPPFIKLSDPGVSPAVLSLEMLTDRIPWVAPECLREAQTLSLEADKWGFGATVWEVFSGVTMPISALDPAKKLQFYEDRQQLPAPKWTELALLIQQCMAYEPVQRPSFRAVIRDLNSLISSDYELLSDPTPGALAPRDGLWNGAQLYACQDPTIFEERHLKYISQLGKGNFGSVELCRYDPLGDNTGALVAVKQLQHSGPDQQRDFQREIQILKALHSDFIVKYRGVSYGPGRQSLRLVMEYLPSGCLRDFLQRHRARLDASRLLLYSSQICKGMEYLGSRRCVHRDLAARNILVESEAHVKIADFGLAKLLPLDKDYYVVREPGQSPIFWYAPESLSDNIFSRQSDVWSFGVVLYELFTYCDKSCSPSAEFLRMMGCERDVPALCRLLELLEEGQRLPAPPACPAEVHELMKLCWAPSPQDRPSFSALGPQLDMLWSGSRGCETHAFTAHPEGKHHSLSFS
Sequence of Tyk2 (P29597 whole entry): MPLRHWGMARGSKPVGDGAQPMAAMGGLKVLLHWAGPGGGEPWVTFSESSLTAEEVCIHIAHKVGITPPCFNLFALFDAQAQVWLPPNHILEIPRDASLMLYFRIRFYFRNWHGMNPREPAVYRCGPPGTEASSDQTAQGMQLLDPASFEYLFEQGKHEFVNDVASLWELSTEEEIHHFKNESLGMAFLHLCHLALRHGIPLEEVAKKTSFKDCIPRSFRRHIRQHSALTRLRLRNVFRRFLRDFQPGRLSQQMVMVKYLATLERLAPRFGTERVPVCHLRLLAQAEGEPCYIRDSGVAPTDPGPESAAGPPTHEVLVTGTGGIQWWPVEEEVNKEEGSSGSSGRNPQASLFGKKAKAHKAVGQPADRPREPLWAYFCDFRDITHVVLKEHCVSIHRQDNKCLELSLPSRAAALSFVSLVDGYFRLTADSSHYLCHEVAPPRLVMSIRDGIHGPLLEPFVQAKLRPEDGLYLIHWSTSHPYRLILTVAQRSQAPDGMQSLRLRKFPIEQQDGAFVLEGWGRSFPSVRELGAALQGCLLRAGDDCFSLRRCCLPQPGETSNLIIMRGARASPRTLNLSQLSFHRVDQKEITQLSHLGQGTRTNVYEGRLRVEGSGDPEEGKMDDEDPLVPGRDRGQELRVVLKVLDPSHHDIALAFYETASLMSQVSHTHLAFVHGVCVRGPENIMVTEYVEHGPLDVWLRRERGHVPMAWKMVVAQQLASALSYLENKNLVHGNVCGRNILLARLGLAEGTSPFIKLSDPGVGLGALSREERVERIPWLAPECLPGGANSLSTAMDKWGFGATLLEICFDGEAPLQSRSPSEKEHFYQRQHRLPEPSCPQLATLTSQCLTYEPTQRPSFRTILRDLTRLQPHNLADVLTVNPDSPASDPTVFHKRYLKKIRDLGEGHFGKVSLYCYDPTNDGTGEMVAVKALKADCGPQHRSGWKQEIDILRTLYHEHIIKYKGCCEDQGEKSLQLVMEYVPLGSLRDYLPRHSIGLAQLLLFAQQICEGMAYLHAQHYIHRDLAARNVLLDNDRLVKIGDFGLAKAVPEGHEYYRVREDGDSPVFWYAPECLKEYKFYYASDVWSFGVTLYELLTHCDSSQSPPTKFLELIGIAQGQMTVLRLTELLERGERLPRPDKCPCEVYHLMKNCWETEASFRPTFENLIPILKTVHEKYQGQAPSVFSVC

SMILES | IC50 (Tyk2; IC50 (μM) TYK2, ATP 100 μM) [µM] | IC50 (JAK3; IC50 (μM) JAK3, ATP 100 μM) [µM] | IC50 (JAK1; IC50 (μM) JAK1, ATP 100 μM) [µM] | IC50 (JAK2; IC50 (μM) JAK2, ATP 100 μM) [µM] | IC50 (Tyk2; [9]) [µM] | IC50 (JAK3; [10]) [µM] | IC50 (JAK1; [11]) [µM] | IC50 (JAK2; [12]) [µM] | further results
O=c1ncn(C2CCCCC2)c2c1cnc1[nH]ccc12 [compound 13] |  |  |  |  |  |  |  |  | IC50 (Tyk2; [5]): > 1 µM; IC50 (JAK3; [6]): 1.3 µM; IC50 (JAK1; [7]): 0.042 µM; IC50 (JAK2; [8]): 0.56 µM
O=c1[nH]c(=O)n(C2CCN(CCNC3CCNCC3)CC2)c2c1cnc1[nH]ccc12 [compound 111] | > 1 | > 1 | 0.44 | > 1 |  |  |  |  | 
O=C1NCc2cnc3[nH]ccc3c2N1C1CCN(S(=O)(=O)Cc2ccccc2)CC1 [compound 60] |  |  |  |  | > 1 | > 1 | 0.35 | 0.48 | 
O=c1ccn(C2CCN(Cc3ccc(C(F)(F)F)cc3)CC2)c2c1cnc1[nH]ccc12 [Synthetic Example^b 56, 1-{1-[4-(trifluoromethyl)benzyl]piperidin-4-yl}-1H-pyrrolo[2,3-h][1,6]naphthyridin-4(7H)-one] |  |  |  |  | > 1 | > 1 | 0.019 | 0.24 | 
Cn1c(=O)c2cnc3[nH]ccc3c2n(C2CCCCC2)c1=O [Synthetic Example^b 138, 1-cyclohexyl-3-methyl-1H-pyrrolo[3′,2′:5,6]pyrido[4,3-d]pyrimidine-2,4(3H,7H)-dione] | > 1 | 0.51 | 0.04 | 0.42 |  |  |  |  | 
O=c1ccn(C2C3CC4CC2CC(O)(C4)C3)c2c1cnc1[nH]ccc12 (stereo not shown) [compound 107] | > 1 | 0.41 | 0.31 | 0.6 |  |  |  |  | 
O=c1[nH]c(=O)n(C2CCN(Cc3ccc(Br)s3)CC2)c2c1cnc1[nH]ccc12 [compound 89] | > 1 | > 1 | 0.011 | > 1 |  |  |  |  | 
O=c1[nH]c(=O)n(C2CCN(CCN3CCOCC3)CC2)c2c1cnc1[nH]ccc12 [compound 108] | > 1 | > 1 | 0.37 | > 1 |  |  |  |  | 
C[C@@H]1CCN(C(=O)CC#N)C[C@@H]1n1ccc(=O)c2cnc3[nH]ccc3c21 (racemic) [compound 7] |  |  |  |  |  |  |  |  | IC50 (Tyk2; [5]): 0.06 µM; IC50 (JAK3; [6]): 0.0032 µM; IC50 (JAK1; [7]): 0.0017 µM; IC50 (JAK2; [8]): 0.004 µM
C[C@@H]1CCN(C(=O)CC#N)C[C@@H]1N(C)c1ncnc2[nH]ccc12 [CP-690,550] |  |  |  |  |  |  |  |  | pathology of rheumatoid arthritis [1]: improved the pathology; pathology of psoriasis [2]: improved the pathology; rejection [3]: suppressed rejection; airway inflammation [4]: suppressed
C[C@@H]1CCN(C(=O)CC(F)(F)F)C[C@@H]1n1ccc(=O)c2cnc3[nH]ccc3c21 (racemic) [compound 9] |  |  |  |  |  |  |  |  | IC50 (Tyk2; [5]): 0.15 µM; IC50 (JAK3; [6]): 0.01 µM; IC50 (JAK1; [7]): 0.004 µM; IC50 (JAK2; [8]): 0.0094 µM
C[C@@H]1CCN(Cc2ccccc2)C[C@@H]1n1ccc(=O)c2cnc3[nH]cc(Br)c3c21 (racemic) [compound 21] |  |  |  |  | > 1 | 0.82 | 0.56 | 1.3 | 
N#CCn1c(=O)c2cnc3[nH]ccc3c2n(C2CCCCC2)c1=O [Synthetic Example^b 137, 2-(1-Cyclohexyl-2,4-dioxo-1H-pyrrolo[3′,2′:5,6]pyrido[4,3-d]pyrimidin-3(2H,4H,7H)-yl)acetonitrile] | > 1 | 0.91 | 0.057 | > 1 |  |  |  |  | 
C[C@@H]1CCN(Cc2cccc(C#N)c2)C[C@@H]1n1ccc(=O)c2cnc3[nH]ccc3c21 (racemic) [compound 42] |  |  |  |  | > 1 | 0.093 | 0.016 | 0.15 | 
O=c1ccn(C2C3CC4CC2CC(O)(C4)C3)c2c1cnc1[nH]ccc12 (stereo not shown) [compound 106] | 0.38 | 0.61 | 0.047 | 0.25 |  |  |  |  | 
C[C@@H]1CCN(C(=O)CC2CC2)C[C@@H]1n1ccc(=O)c2cnc3[nH]ccc3c21 (racemic) [compound 8] |  |  |  |  |  |  |  |  | IC50 (Tyk2; [5]): 1.5 µM; IC50 (JAK3; [6]): 0.041 µM; IC50 (JAK1; [7]): 0.026 µM; IC50 (JAK2; [8]): 0.075 µM
O=C1NCc2cnc3[nH]ccc3c2N1C1CCNCC1 [compound 68] |  |  |  |  | > 1 | 9.1 | 0.5 | 2.4 | 
O=C(c1ccc(Cl)s1)N1CCC(n2ccc(=O)c3cnc4[nH]ccc4c32)CC1 [compound 87] |  |  |  |  | > 1 | > 1 | 0.025 | 0.38 | 
CC(C)(C)OC(=O)N1CCC(NCCN2CCC(n3c(=O)[nH]c(=O)c4cnc5[nH]ccc5c43)CC2)CC1 [compound 109] | > 1 | > 1 | 0.92 | > 1 |  |  |  |  | 

— US9216999B2, “Substituted pyrrolo[2,3-h][1,6]naphthyridines and compositions thereof as JAK inhibitors” (priority 2011, dated 2015)
